Patent US6809065B2, “Herbicide containing substituted pyrazole derivative as active ingredient” (SDS Biotech K.K., priority 2001, dated 2004)

What was measured:
[1] = system: Chenopodium album; assay: Upland field foliage treatment (Test Example 1); format: in vivo; conditions: foliage treatment 14th day after sowing, wettable powder, 1 kg active ingredient per hectare, evaluated 21st day after application
Excerpt: (§1) In the above evaluation criteria, the term “herbicidal effect” means evaluation to the objective weeds, and a higher index of the evaluation criteria means higher herbicidal effect on the objective weeds. On the other hand, a lower index of the evaluation criteria for the crops means higher safety to the crops. A plastic pot of 130 cm^2 was filled with upland soil. Then, seeds of weeds, namely, Setaria viridis, Digitaria adscendens, Chenopodium album and Stellaria media, and seeds of crops, namely, soybean (Glycine max) and wheat (Triticum aestivum), were sowed and covered with soil of about 1 cm thick. On the 14th day after the sowing, a wettable powder composition was prepared in accordance with Formulation Example 1, diluted with water in such an amount that the amount of the active ingredient became 1 kg per hectare, and then uniformly applied to the plant leaf surfaces. On the 21st day after the application, observation and evaluation were carried out according to the aforesaid criteria.

[2] = system: Digitaria adscendens; assay: Upland field foliage treatment (Test Example 1); format: in vivo; conditions: foliage treatment 14th day after sowing, wettable powder, 1 kg active ingredient per hectare, evaluated 21st day after application
Excerpt: as §1

[3] = system: Setaria viridis; assay: Upland field foliage treatment (Test Example 1); format: in vivo; conditions: foliage treatment 14th day after sowing, wettable powder, 1 kg active ingredient per hectare, evaluated 21st day after application
Excerpt: as §1

[4] = system: Stellaria media; assay: Upland field foliage treatment (Test Example 1); format: in vivo; conditions: foliage treatment 14th day after sowing, wettable powder, 1 kg active ingredient per hectare, evaluated 21st day after application
Excerpt: as §1

[5] = system: soybean (Glycine max); assay: Upland field foliage treatment (Test Example 1), crop; format: in vivo; conditions: foliage treatment 14th day after sowing, 1 kg active ingredient per hectare, evaluated 21st day, lower index = higher safety
Excerpt: as §1

[6] = system: wheat (Triticum aestivum); assay: as above; format: in vivo; conditions: foliage treatment 14th day after sowing, 1 kg active ingredient per hectare, evaluated 21st day, lower index = higher safety
Excerpt: as §1

[7] = system: Chenopodium album; assay: Upland soil treatment (Test Example 2); format: in vivo; conditions: soil surface treatment next day after sowing, wettable powder, 1 kg active ingredient per hectare, evaluated 21st day after application
Excerpt: (§2) In the above evaluation criteria, the term “herbicidal effect” means evaluation to the objective weeds, and a higher index of the evaluation criteria means higher herbicidal effect on the objective weeds. On the other hand, a lower index of the evaluation criteria for the crops means higher safety to the crops. A plastic pot of 130 cm^2 was filled with upland soil. Then, seeds of weeds, namely, Setaria viridis, Digitaria adscendens, Chenopodium album and Stellaria media, and seeds of crops, namely, soybean (Glycine max) and wheat (Triticum aestivum), were sowed and covered with soil of about 1 cm thick. On the next day after the sowing, a wettable powder composition was prepared in accordance with Formulation Example 1, diluted with water in such an amount that the amount of the active ingredient became 1 kg per hectare, and then uniformly applied to the soil surface. On the 21st day after the application, observation and evaluation were carried out according to the aforesaid criteria.

[8] = system: Digitaria adscendens; assay: Upland soil treatment (Test Example 2); format: in vivo; conditions: soil surface treatment next day after sowing, wettable powder, 1 kg active ingredient per hectare, evaluated 21st day after application
Excerpt: as §2

[9] = system: Setaria viridis; assay: Upland soil treatment (Test Example 2); format: in vivo; conditions: soil surface treatment next day after sowing, wettable powder, 1 kg active ingredient per hectare, evaluated 21st day after application
Excerpt: as §2

[10] = system: Stellaria media; assay: Upland soil treatment (Test Example 2); format: in vivo; conditions: soil surface treatment next day after sowing, wettable powder, 1 kg active ingredient per hectare, evaluated 21st day after application
Excerpt: as §2

[11] = system: soybean (Glycine max); assay: Upland soil treatment (Test Example 2), crop; format: in vivo; conditions: soil surface treatment next day after sowing, 1 kg active ingredient per hectare, evaluated 21st day, lower index = higher safety
Excerpt: as §2

[12] = system: wheat (Triticum aestivum); assay: Upland soil treatment (Test Example 2), crop; format: in vivo; conditions: soil surface treatment next day after sowing, 1 kg active ingredient per hectare, evaluated 21st day, lower index = higher safety
Excerpt: as §2

[13] = system: Echinochloa spp.; assay: Paddy field treatment (Test Example 3); format: in vivo, Echinochloa crusgalli; conditions: paddy pot, submerged 4 cm, dropped on water surface 10th day after transplantation, 1 kg active ingredient per hectare, evaluated 21st day
Experimental: (§3) In the above evaluation criteria, the term “herbicidal effect” means evaluation to the objective weeds, and a higher index of the evaluation criteria means higher herbicidal effect on the objective weeds. On the other hand, a lower index of the evaluation criteria for the crops means higher safety to the crops. A plastic pot of 130 cm^2 was filled with paddy soil, and soil puddling was carried out to adjust the submerged depth to 4 cm. Then, seeds of Echinochloa crusgalli, Monochoria vaginalis, Ammannia multiflora and Scirpus juncoides were sowed, and rice (Oryza […], variety: Koshihikari) of two-leaf period was transplanted by 2 rice plants of 1 stub per pot at a depth of 3 cm. On the 10th day after the transplantation, a wettable powder composition was prepared in accordance with Formulation Example 1, diluted with water in such an amount that the amount of the active ingredient became 1 kg per hectare, and then dropped to diffuse on the water surface. On the 21st day after the dropping, observation and evaluation were carried out according to the aforesaid criteria.

[14] = system: Ammannia multiflora; assay: Paddy field treatment (Test Example 3); format: in vivo; conditions: paddy pot, submerged 4 cm, dropped on water surface 10th day after transplantation, 1 kg active ingredient per hectare, evaluated 21st day
Experimental: as §3

[15] = system: Monochoria vaginalis; assay: Paddy field treatment (Test Example 3); format: in vivo; conditions: paddy pot, submerged 4 cm, dropped on water surface 10th day after transplantation, 1 kg active ingredient per hectare, evaluated 21st day
Experimental: as §3

[16] = system: Scirpus juncoides; assay: Paddy field treatment (Test Example 3); format: in vivo; conditions: paddy pot, submerged 4 cm, dropped on water surface 10th day after transplantation, 1 kg active ingredient per hectare, evaluated 21st day
Experimental: as §3

[17] = system: rice (Oryza sative, variety: Koshihikari); assay: Paddy field treatment (Test Example 3), crop; format: in vivo, Oryza sativa; conditions: transplanted rice two-leaf period, water surface treatment 10th day after transplantation, 1 kg active ingredient per hectare, evaluated 21st day, lower index = higher safety
Experimental: as §3

| SMILES | Herbicidal activity Chenopodium album [1] | Herbicidal activity Digitaria adscendens [2] | Herbicidal activity Setaria viridis [3] | Herbicidal activity Stellaria media [4] | Herbicidal activity Glycine max [5] | Herbicidal activity Triticum aestivum [6] | Herbicidal activity Chenopodium album [7] | Herbicidal activity Digitaria adscendens [8] | Herbicidal activity Setaria viridis [9] | Herbicidal activity Stellaria media [10] | Herbicidal activity Glycine max [11] | Herbicidal activity Triticum aestivum [12] | Herbicidal activity Echinochloa spp. [13] | Herbicidal activity Ammannia multiflora [14] | Herbicidal activity Monochoria vaginalis [15] | Herbicidal activity Scirpus juncoides [16] | Herbicidal activity Oryza sativa [17] |
| --- | --- | --- | --- | --- | --- | --- | --- | --- | --- | --- | --- | --- | --- | --- | --- | --- | --- |
| COC=C(Cn1nc(-c2cc(C)ccc2C)c(Cl)c1C)C(=O)OC [Compound 19] | 5 (herbicidal effect of not less than 90% by weight) | 5 (herbicidal effect of not less than 90% by weight) | 4 (herbicidal effect of not less than 70% by weight and less than 90% by weight) | 4 (herbicidal effect of not less than 70% by weight and less than 90% by weight) | 0 (herbicidal effect of not less than 0% by weight and less than 10% by weight) | 0 (herbicidal effect of not less than 0% by weight and less than 10% by weight) | 4 (herbicidal effect of not less than 70% by weight and less than 90% by weight) | 5 (herbicidal effect of not less than 90% by weight) | 4 (herbicidal effect of not less than 70% by weight and less than 90% by weight) | 5 (herbicidal effect of not less than 90% by weight) | 0 (herbicidal effect of not less than 0% by weight and less than 10% by weight) | 0 (herbicidal effect of not less than 0% by weight and less than 10% by weight) | 5 (herbicidal effect of not less than 90% by weight) | 5 (herbicidal effect of not less than 90% by weight) | 5 (herbicidal effect of not less than 90% by weight) | 5 (herbicidal effect of not less than 90% by weight) | 1 (herbicidal effect of not less than 10% by weight and less than 30% by weight) |
| COC=C(Cn1nc(-c2cc(C)ccc2C)cc1C)C(=O)OC [Compound 5] | 5 (herbicidal effect of not less than 90% by weight) | 4 (herbicidal effect of not less than 70% by weight and less than 90% by weight) | 4 (herbicidal effect of not less than 70% by weight and less than 90% by weight) | 4 (herbicidal effect of not less than 70% by weight and less than 90% by weight) | 0 (herbicidal effect of not less than 0% by weight and less than 10% by weight) | 0 (herbicidal effect of not less than 0% by weight and less than 10% by weight) | 4 (herbicidal effect of not less than 70% by weight and less than 90% by weight) | 5 (herbicidal effect of not less than 90% by weight) | 4 (herbicidal effect of not less than 70% by weight and less than 90% by weight) | 4 (herbicidal effect of not less than 70% by weight and less than 90% by weight) | 0 (herbicidal effect of not less than 0% by weight and less than 10% by weight) | 0 (herbicidal effect of not less than 0% by weight and less than 10% by weight) |  | 3 (herbicidal effect of not less than 50% by weight and less than 70% by weight) | 5 (herbicidal effect of not less than 90% by weight) | 3 (herbicidal effect of not less than 50% by weight and less than 70% by weight) | 0 (herbicidal effect of not less than 0% by weight and less than 10% by weight) |
